The values below come from US11407748B2, “Substituted pyrido[1,2-a]pyrimidines and pyrazino[1,2-a]pyrimidines for enhancing AMPA receptor function” (Takeda Pharmaceutical Company Limited, priority 2017, dated 2022).

The target of the assay is T1, hGluR1 flip (Homo sapiens, UniProt P42261).
T1 construct: expressed in transfected cells; host or cells: CHO-K1
Kind of assay: AMPA receptor function-enhancing activity using calcium influx as index. The format is cell-based. The note with it: test compound 30 μM with 3 mM glutamic acid; CHO-K1/GluR1 flip/stargazin-expressing cells; 100% = 3 mM glutamic acid + 300 μM cyclothiazide, 0% = 3 mM glutamic acid alone. An excerpt:
Experimental Example 1 Measurement Method of AMPA Receptor Function-Enhancing Activity of Compound Using Calcium Influx as Index
(1) Construction of Expression Gene
Human GluR^1 flip cDNA was amplified by PCR method using forward primer […] (SEQ ID NO: 1) and reverse primer […] (SEQ ID NO: 2) artificially synthesized using human brain-derived cDNA (BD Bioscience) as a template. The amplified product was digested with restriction enzymes EcoRI, NotI (TAKARA SHUZO CO. LTD.) and incorporated into the same site of pcDNA3.1 (+) (Invitrogen) to construct pcDNA3.1(+)/human GluR1 flip gene. Human stargazin cDNA was amplified by PCR method using forward primer […] (SEQ ID NO: 3) and reverse primer […] (SEQ ID NO: 4) artificially synthesized using human hippocampus cDNA as a template. The amplified product was digested with restriction enzymes XhoI, BamHI (TAKARA SHUZO CO. LTD.) and incorporated into the same site of pcDNA3.1(−) (Invitrogen) to construct pcDNA3.1 Zeo(−)/human stargazing gene.
(2) Construction of GluR1 Flip/Stargazin Expressing Cell
CHO-K1 cells passaged in a culture medium (Ham's F12 medium (Invitrogen) added with 10% inactivated fetal bovine serum (Morgate) and penicillin, streptomycin (Invitrogen)) were detached using 0.05% trypsin and 0.53 mM EDTA (Invitrogen) diluted with D-PBS(−). The detached cells were suspended in a culture medium, and recovered by centrifugation at 1,000 rpm. The recovered cells were re-suspended in D-PBS(−) and added into 0.4 cm electroporation cuvette (BioRad). pcDNA3.1(+)/human GluR1 flip gene (5 μg) and pcDNA3.1 Zeo(−)/human stargazin gene (15 μg) were added, and introduced into CHO-K1 cells under the conditions of 950 μFd, […] and using Gene Pulser II (BioRad). The introduced cells were cultured overnight in a culture medium. The next day, using a selection medium (culture medium added with zeocin (Invitrogen) at 250 μg/mL), the cells were plated in a 96 well plate at 250 cells/well. The clones showing drug resistance were selected, and GluR1 flip/stargazin expression clones were selected by an assay method shown below using calcium influx as an index.
(3) Measurement Method of AMPA Receptor Function-Enhancing Activity of Compound, Using Calcium Influx as an Index
CHO-K1/GluR1 flip/stargazin-expressing cells were plated on a 384 well black bottom transparent plate, and cultured for 2 days in a CO2 incubator (SANYO ELECTRIC Co. Ltd.) at 37° C. The medium of the cell plate was removed. A calcium indicator (Calcium5 Assay Kit, Molecular Devices) was diluted with an assay buffer (HESS (Thermo Fisher Scientific), 0.1% BSA (Merck Millipoer) and 10 mM HEPES (Thermo Fisher Scientific)), and 1.25 mM probenecid (Dojindo Laboratories) was added thereto. The mixture prepared above was added at 30 μL/well (100 μL/well in case of 96 wells) to the well, and the well was left standing in 37° C., CO2 incubator for 1 hr. The cell plate was set in CellLux (PerkinElmer), a mixture (15 μL) (50 μL/well in case of 96 wells) of 9 mM glutamic acid (final concentration 3 mM) diluted with an assay buffer and a test compound (test compound concentration 30 μM) was added thereto, and variation in the amount of fluorescence was measured for 3 min. The variation of fluorescence level of a well added with final concentration 3 mM of glutamic acid and 300 μM cyclothiazide (TOCRIS) was defined as 100%, the variation of fluorescence level of a well added with final concentration 3 mM of glutamic acid alone was defined as 0%, and the activity of the compound was calculated by the following formula. activity (%)=(X−C)/(T−C)×100 • T: variation of fluorescence level of well added with final concentration 3 mM of glutamic acid and 300 μM cyclothiazide • C: variation of fluorescence level of well added with final concentration 3 mM of glutamic acid alone • X: variation of fluorescence level of well added with test compound

T1 sequence (P42261 19-906 isoform P42261-2 limits assumed): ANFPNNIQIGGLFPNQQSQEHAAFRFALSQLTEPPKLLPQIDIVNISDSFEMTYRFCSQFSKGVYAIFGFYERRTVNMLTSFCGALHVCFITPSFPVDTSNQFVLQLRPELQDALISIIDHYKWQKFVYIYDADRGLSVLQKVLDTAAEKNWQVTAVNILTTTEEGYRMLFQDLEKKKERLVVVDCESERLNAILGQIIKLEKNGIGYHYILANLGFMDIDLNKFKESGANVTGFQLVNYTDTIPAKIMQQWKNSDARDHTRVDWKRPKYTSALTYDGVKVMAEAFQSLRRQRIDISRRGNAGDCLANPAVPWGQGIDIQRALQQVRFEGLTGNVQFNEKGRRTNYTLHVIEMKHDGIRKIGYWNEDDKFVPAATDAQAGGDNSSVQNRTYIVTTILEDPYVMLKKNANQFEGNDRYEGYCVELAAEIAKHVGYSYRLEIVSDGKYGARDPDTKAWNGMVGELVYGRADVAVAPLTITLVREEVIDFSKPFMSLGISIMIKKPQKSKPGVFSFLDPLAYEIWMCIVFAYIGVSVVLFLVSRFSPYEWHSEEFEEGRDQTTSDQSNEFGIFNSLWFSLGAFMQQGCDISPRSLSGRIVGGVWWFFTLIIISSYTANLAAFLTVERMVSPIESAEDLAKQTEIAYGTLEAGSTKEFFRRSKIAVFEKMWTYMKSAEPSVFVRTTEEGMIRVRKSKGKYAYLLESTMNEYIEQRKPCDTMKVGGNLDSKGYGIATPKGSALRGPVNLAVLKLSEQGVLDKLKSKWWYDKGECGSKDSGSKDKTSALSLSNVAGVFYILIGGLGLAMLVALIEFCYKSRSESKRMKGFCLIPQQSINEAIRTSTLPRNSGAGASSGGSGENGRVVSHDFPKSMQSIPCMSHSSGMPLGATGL
T1 sequence (Q9Y698 whole entry partner): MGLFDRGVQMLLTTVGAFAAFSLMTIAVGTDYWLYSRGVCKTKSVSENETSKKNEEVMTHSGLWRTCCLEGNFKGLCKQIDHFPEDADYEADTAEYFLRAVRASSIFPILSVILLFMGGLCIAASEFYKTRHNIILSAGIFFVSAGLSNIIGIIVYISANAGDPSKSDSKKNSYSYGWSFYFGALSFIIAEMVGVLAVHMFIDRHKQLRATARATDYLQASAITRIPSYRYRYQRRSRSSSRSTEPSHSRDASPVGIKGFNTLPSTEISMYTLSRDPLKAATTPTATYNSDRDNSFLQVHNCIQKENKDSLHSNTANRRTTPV

As for `O=C(c1ccc(-c2cccn3c(=O)c(Br)c(C(F)(F)F)nc23)cc1F)N1CCOC(F)(F)C1` [Example 71, 3-bromo-9-(4-((2,2-difluoromorpholin-4-yl)carbonyl)-3-f1uorophenyl)-2-(trifluoromethyl)-4H-pyrido[1,2-a]pyrimidin-4-one], the activation at 30 µM stood at 72.3%.

For the compound `COCCNC(=O)c1ccc(-c2cccn3c(=O)c(Br)c(C(F)(F)F)nc23)cc1F` [Example 72, 4-(3-bromo-4-oxo-2-(trifluoromethyl)-4H-pyrido[1,2-a]pyrimidin-9-yl)-2-fluoro-N-(2-methoxyethyl)benzamide], the activation at 30 µM worked out at 76.4%. Consider `C[C@H]1CN(C(=O)c2ccc(-c3cccn4c(=O)c(Br)c(C(F)(F)F)nc34)cc2F)CCO1` [Example 73, 3-bromo-9-(3-fluoro-4-(((2S)-2-methylmorpholin-4-yl)carbonyl)phenyl)-2-(trifluoromethyl)-4H-pyrido[1,2-a]pyrimidin-4-one], for which the activation at 30 µM was determined as 87.9%. In the case of `C[C@@H]1CN(C(=O)c2ccc(-c3cccn4c(=O)c(Br)c(C(F)(F)F)nc34)cc2F)CCO1` [Example 74, 3-bromo-9-(3-fluoro-4-(((2R)-2-methylmorpholin-4-yl)carbonyl)phenyl)-2-(trifluoromethyl)-4H-pyrido[1,2-a]pyrimidin-4-one] it was 88.2%. In the case of `O=C(c1ccc(-c2cccn3c(=O)c(Br)c(C(F)(F)F)nc23)cc1F)N1CCCOCC1` [Example 75, 3-bromo-9-(3-fluoro-4-(1,4-oxazepan-4-ylcarbonyl)phenyl)-2-(trifluoromethyl)-4H-pyrido[1,2-a]pyrimidin-4-one] it was 99.1%.

Consider `Cc1c(C(F)(F)F)nc2c(-c3ccc(C(=O)N4CCCOCC4)c(F)c3)cccn2c1=O` [Example 76, 9-(3-fluoro-4-(1,4-oxazepan-4-ylcarbonyl)phenyl)-3-methyl-2-(trifluoromethyl)-4H-pyrido[1,2-a]pyrimidin-4-one], for which the activation at 30 µM was 93.3%. Turning to `O=C(c1ccc(-c2cccn3c(=O)cc(C(F)(F)F)nc23)cc1F)N1CCc2cccnc21` [Example 78, 9-(4-(2,3-dihydro-1H-pyrrolo[2,3-b]pyridin-1-ylcarbonyl)-3-fluorophenyl)-2-(trifluoromethyl)-4H-pyrido[1,2-a]pyrimidin-4-one], the activation at 30 µM is 94.2%. Under `O=C(c1ccc(-c2cccn3c(=O)c(Br)c(C(F)(F)F)nc23)cc1F)N1CCc2cccnc21` [Example 79, 3-bromo-9-(4-(2,3-dihydro-1H-pyrrolo[2,3-b]pyridin-1-ylcarbonyl)-3-fluorophenyl)-2-(trifluoromethyl)-4H-pyrido[1,2-a]pyrimidin-4-one] stands 79.6%; under `Cc1c(C(F)(F)F)nc2c(-c3ccc(C(=O)N4CCc5cccnc54)c(F)c3)cccn2c1=O` [Example 80, 9-(4-(2,3-dihydro-1H-pyrrolo[2,3-b]pyridin-1-ylcarbonyl)-3-fluorophenyl)-3-methyl-2-(trifluoromethyl)-4H-pyrido[1,2-a]pyrimidin-4-one], 90.6%; under `O=C(c1ccc(-c2cccn3c(=O)c(Cl)c(C(F)(F)F)nc23)cc1F)N1CCCOCC1` [Example 81, 3-chloro-9-(3-fluoro-4-(1,4-oxazepan-4-ylcarbonyl)phenyl)-2-(trifluoromethyl)-4H-pyrido[1,2-a]pyrimidin-4-one], 95.1%. In the case of `CN(C(=O)c1ccc(-c2cccn3c(=O)cc(C(F)(F)F)nc23)cc1F)C1CCOCC1` [Example 82, 2-fluoro-N-methyl-4-(4-oxo-2-(trifluoromethyl)-4H-pyrido[1,2-a]pyrimidin-9-yl)-N-(tetrahydro-2H-pyran-4-yl)benzamide], the activation at 30 µM was 81.4%. Consider `Cc1c(C(F)(F)F)nc2c(-c3ccc(C(=O)N(C)C4CCOCC4)c(F)c3)cccn2c1=O` [Example 83, 2-fluoro-N-methyl-4-(3-methyl-4-oxo-2-(trifluoromethyl)-4H-pyrido[1,2-a]pyrimidin-9-yl)-N-(tetrahydro-2H-pyran-4-yl)benzamide], for which the activation at 30 µM is 103%. Under `CN(C(=O)c1ccc(-c2cccn3c(=O)c(Br)c(C(F)(F)F)nc23)cc1F)C1CCOCC1` [Example 84, 4-(3-bromo-4-oxo-2-(trifluoromethyl)-4H-pyrido[1,2-a]pyrimidin-9-yl)-2-fluoro-N-methyl-N-(tetrahydro-2H-pyran-4-yl)benzamide] stands 102%. Regarding `Cc1c(C(F)(F)F)nc2c(-c3ccc(C(=O)NC4CCOCC4)c(F)c3)cccn2c1=O` [Example 85, 2-fluoro-4-(3-methyl-4-oxo-2-(trifluoromethyl)-4H-pyrido[1,2-a]pyrimidin-9-yl)-N-(tetrahydro-2H-pyran-4-yl)benzamide], the activation at 30 µM stood at 109%. Under `Cc1c(C(F)(F)F)nc2c(-c3ccc(C(=O)N[C@H]4CCOC4)c(F)c3)cccn2c1=O` [Example 86, 2-fluoro-4-(3-methyl-4-oxo-2-(trifluoromethyl)-4H-pyrido[1,2-a]pyrimidin-9-yl)-N-((3S)-tetrahydrofuran-3-yl)benzamide] stands 103%. Under `COC1CCN(C(=O)c2ccc(-c3cccn4c(=O)c(C)c(C(F)(F)F)nc34)cc2F)CC1` [Example 87, 9-(3-fluoro-4-((4-methoxypiperidin-1-yl)carbonyl)phenyl)-3-methyl-2-(trifluoromethyl)-4H-pyrido[1,2-a]pyrimidin-4-one] stands 101%. Regarding `COC1CCN(C(=O)c2ccc(-c3cccn4c(=O)c(Br)c(C(F)(F)F)nc34)cc2F)CC1` [Example 88, 3-bromo-9-(3-fluoro-4-((4-methoxypiperidin-1-yl)carbonyl)phenyl)-2-(trifluoromethyl)-4H-pyrido[1,2-a]pyrimidin-4-one], the activation at 30 µM worked out at 90.3%. With `COC1CCN(C(=O)c2ccc(-c3cccn4c(=O)cc(C(F)(F)F)nc34)cc2F)CC1` [Example 89, 9-(3-fluoro-4-((4-methoxypiperidin-1-yl)carbonyl)phenyl)-2-(trifluoromethyl)-4H-pyrido[1,2-a]pyrimidin-4-one], the activation at 30 µM was determined as 82.8%.

Turning to `CO[C@@H]1CCN(C(=O)c2ccc(-c3cccn4c(=O)c(C)c(C(F)(F)F)nc34)cc2F)C1` [Example 90, 9-(3-fluoro-4-(((3R)-3-methoxypyrrolidin-1-yl)carbonyl)phenyl)-3-methyl-2-(trifluoromethyl)-4H-pyrido[1,2-a]pyrimidin-4-one], the activation at 30 µM worked out at 89.3%. In the case of `CO[C@@H]1CCN(C(=O)c2ccc(-c3cccn4c(=O)c(Br)c(C(F)(F)F)nc34)cc2F)C1` [Example 91, 3-bromo-9-(3-fluoro-4-(((3R)-3-methoxypyrrolidin-1-yl)carbonyl)phenyl)-2-(trifluoromethyl)-4H-pyrido[1,2-a]pyrimidin-4-one], the activation at 30 µM is 80.9%. In the case of `O=C(N[C@H]1CCCOC1)c1ccc(-c2cccn3c(=O)c(Br)c(C(F)(F)F)nc23)cc1` [Example 92, 4-(3-bromo-4-oxo-2-(trifluoromethyl)-4H-pyrido[1,2-a]pyrimidin-9-yl)-N-((3S)-tetrahydro-2H-pyran-3-yl)benzamide] it was 78.9%; in that of `Cc1c(C(F)(F)F)nc2c(-c3ccc(C(=O)N[C@H]4CCCOC4)cc3)cccn2c1=O` [Example 93, 4-(3-methyl-4-oxo-2-(trifluoromethyl)-4H-pyrido[1,2-a]pyrimidin-9-yl)-N-((3S)-tetrahydro-2H-pyran-3-yl)benzamide], 88.2%.
